According to patent US5608084A, “Lactones with antioxidising and hypolipidaemic activity useful in the therapy of the atherosclerosis” (priority 1994, dated 1997):

Experiments:
[1] = tested on: LDL; settings: in vitro, LDL incubated with antioxidizer; cited from earlier work
[2] = tested on: Watanabe rabbits, suffering from familial hypercholesterolaemia; settings: cited from earlier work
[3] = tested on: B-100 apolipoprotein; test: Relative electrophoretic mobility of oxidized LDL on agarose gel (surface-negative charge of B-100 apolipoprotein); type: biochemical, human; settings: 10 μM; for REM (%) at 180': 180 minutes; for REM (%) at 180' / REM (%) at 360': native LDL = 0, copper-oxidized LDL with ethanol at 360 minutes = 100; for REM (%) at 360': 360 minutes
Description: The determination of the melting point has been carried out by means of a capillary melting point apparatus Electrothermal, without any correction. The I.R. spectrum has been obtained by means of a Perkin-Elmer rood. 963/G spectrophotometer generally, when not otherwise specified, preparing the specimen in potassium bromide and recording the spectrum between 4000 and 600 nm. […] The mass spectrum has been recorded by using a VG 7070E mass spectrometer, at a 70 eV ionization voltage and with a 6 Kvolt acceleration voltage. […] Chem., 43, 2923, (1978). […] The antioxidant activity has been evaluated through the capability of some lactones of formula I to prevent and/or delay the oxidative modification of the lipoproteins (LDL), caused by a chemical method by incubating native LDL with cupric ions, according to the method described by Steinbrecher U. P. in J. Biol. Chem., 262, 3603-3608, (1987). The evaluation of the oxidation degree of the LDL through the monitoring of the concentration of aldehydes derived from the degradation of the lipidic peroxides and the observation of the modifications of the B-100 apolipoprotein represent the used experimental approach. The antioxidant activity of the lactones has been expressed in terms of duration of the latency period that represents a parameter of the resistance to the oxidation of the LDL. The LDL have been isolated from the human plasma obtained from blood collected, in the presence of EDTA, from healty volunteers fasting from 8 hours according to the method described by Havel H. in J. Clin. Invest., 34, 1345-1353, (1955). The solution, dialyzed in Visking-Serva dialysis tubes at 4° C. for 72 hours in phosphate buffer (PBS) added with EDTA (0.24 mM), has been filtered through a membrane with 0.45μ porosity (Millex HV Filters) and the proteic concentration has been determined according to the method described by Lowry O. et al. in J. Biol. Chem., 193, 265-275, (1951). The solution has been diluted with PBS-EDTA at a concentration of 500 μg protein/ml and the obtained LDL have been incubated at 42° C. for 45 minutes in presence of the lactones solubilized in ethanol (1.7 μl/ml LDL). At the end of the incubation the solutions have been placed on ice for 45 minutes and dialyzed at 4° C. for 36 hours in PBS. The oxidation of the LDL has been carried out with 5 μM cupric sulfate at 37° C. and stopped at the experimental times by cooling at 4° C. and adding 0.24 mM of EDTA. The solutions of LDL have been kept at 4° C. and sheltered from light during the experimental procedure. […] 52, (1978).
The inhibition of the oxidative process has also been qualitatively studied through the evaluation of the modification of the surface-negative charge of the B-100 apolipoprotein by electrophoretic analysis on agarose gel, by using the method described in the kit "Titan gel Multi-slot lipo-17 electrophoresis system" (Cat. no. 3095), manufactured by Helena Laboratories.
The Bio-Phoresis Horizontal Electrophoresis Cell Bio-Rad (Cat. no. 1702900) has been used as electrophoretic cell. The modification of the surface-negative charge of the B-100 apolipoprotein, caused by the oxidation of the LDL, produces an increase of the anionic electrophoretic mobility. Therefore the evaluation of the varying of this electrophoretic datum, mobility in presence of antioxidant substances, represents an indirect measure of the antioxidant capabilities of the claimed compounds as reported by Vanderyse L. et al. in Atherosclerosis, 97, 187-199, (1992). […] The migration of the native LDL is taken as a reference equal to 0 (no electrophoretic migration), while the migration of the band of the copper-oxidized LDL at the time of 360 minutes, only in presence of ethanol, is taken as reference equal to 100.

Row | Compound | atherogenic potentialities of the LDL [1] | LDL plasma levels [2] | atheromatous lesions [2] | REM (%) at 180' [3] [%] | REM (%) at 360' [3] [%] | lowering of electrophoretic mobility of LDL compared with probucol [3]
1 | CC(C)(Sc1cc(C(C)(C)C)c(O)c(C(C)(C)C)c1)Sc1cc(C(C)(C)C)c(O)c(C(C)(C)C)c1 [Probucol, reference compound] | remarkably lowered | does not substantially modify the LDL plasma levels | lowers the atheromatous lesions | 40 | 100 | –
2 | Cc1c(C)c2c(c(C)c1O)CCC(C)OC(=O)C(C)(C)CCCO2 (centres unmarked) [Example 3, 6,6,9,13,15,16-Hexamethyl-14-hydroxy-2,8-dioxabicyclo[10.4.0]hexadec-12,14,16-trien-7-one] | – | – | – | 15 | 30 | remarkably more effective than probucol
3 | CCC1CCc2c(C)c(O)c(C)c(C)c2OCCCC(C)(C)C(=O)O1 (centres unmarked) [Example 6, 9-Ethyl-14-hydroxy-6,6,13,15,16-pentamethyl-2,8-dioxabicyclo[10.4.0]hexadec-12,14,16-trien-7-one] | – | – | – | 15 | 30 | remarkably more effective than probucol
